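Each compound was tested at five concentrations against cells in 96-well plates for 48 hours. GI50 is the concentration that inhibits growth by half. TGI marks complete inhibition of growth.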
Key:
Assay in all cases: inhibition of tumour cell growth, NCI panel, 48 h
OVCAR-3 ovarian = tested on: OVCAR-3 ovarian
SF-268 CNS = tested on: SF-268 CNS
TK-10 renal = tested on: TK-10 renal
M14 melanoma = tested on: M14 melanoma
HT29 colon = tested on: HT29 colon
RPMI-8226 leukemia = tested on: RPMI-8226 leukemia
SNB-19 CNS = tested on: SNB-19 CNS
LOX IMVI melanoma = tested on: LOX IMVI melanoma
BT-549 breast = tested on: BT-549 breast
SK-MEL-5 melanoma = tested on: SK-MEL-5 melanoma
RXF 393 renal = tested on: RXF 393 renal
786-0 renal = tested on: 786-0 renal
OVCAR-5 ovarian = tested on: OVCAR-5 ovarian
NCI-H226 lung = tested on: NCI-H226 lung
U251 CNS = tested on: U251 CNS
MALME-3M melanoma = tested on: MALME-3M melanoma
SW-620 colon = tested on: SW-620 colon
HOP-62 NSCLC = tested on: HOP-62 NSCLC
HS 578T breast = tested on: HS 578T breast
HOP-92 NSCLC = tested on: HOP-92 NSCLC
NCI-H460 lung = tested on: NCI-H460 lung
CCRF-CEM leukemia = tested on: CCRF-CEM leukemia
NCI-H23 lung = tested on: NCI-H23 lung
MDA-MB-435 = tested on: MDA-MB-435
UACC-257 melanoma = tested on: UACC-257 melanoma
K-562 leukemia = tested on: K-562 leukemia
CAKI-1 renal = tested on: CAKI-1 renal
A498 renal = tested on: A498 renal
UO-31 renal = tested on: UO-31 renal
EKVX NSCLC = tested on: EKVX NSCLC
KM12 colon = tested on: KM12 colon
MDA-MB-468 breast = tested on: MDA-MB-468 breast
A549 NSCLC = tested on: A549 NSCLC
MOLT-4 leukemia = tested on: MOLT-4 leukemia
SF-295 CNS = tested on: SF-295 CNS
OVCAR-8 ovarian = tested on: OVCAR-8 ovarian
HCC-2998 colon = tested on: HCC-2998 colon
SR leukemia = tested on: SR leukemia
COLO 205 colon = tested on: COLO 205 colon
SK-MEL-28 melanoma = tested on: SK-MEL-28 melanoma
SK-OV-3 ovarian = tested on: SK-OV-3 ovarian
HCT-15 colon = tested on: HCT-15 colon
UACC-62 melanoma = tested on: UACC-62 melanoma
DU-145 prostate = tested on: DU-145 prostate
OVCAR-4 ovarian = tested on: OVCAR-4 ovarian
HCT-116 colon = tested on: HCT-116 colon
PC-3 prostate = tested on: PC-3 prostate
ACHN renal = tested on: ACHN renal
SNB-75 CNS = tested on: SNB-75 CNS
T-47D breast = tested on: T-47D breast
IGROV1 ovarian = tested on: IGROV1 ovarian
MDA-MB-231 breast = tested on: MDA-MB-231 breast
SN12C renal = tested on: SN12C renal
NCI-H522 lung = tested on: NCI-H522 lung
MCF7 breast = tested on: MCF7 breast
HL-60(TB) leukemia = tested on: HL-60(TB) leukemia
SF-539 CNS = tested on: SF-539 CNS

CC1(C)CC[C@]2(C(=O)Nc3ccc(F)cc3)CC[C@]3(C)C(=CCC4[C@@]5(C)C[C@@H](O)[C@H](O)[C@@](C)(CO)C5CC[C@]43C)C2C1 (some centres undefined)
GI50 (OVCAR-3 ovarian): 16.3 µM | TGI (OVCAR-3 ovarian): 31.2 µM | GI50 (SF-268 CNS): 22.6 µM | TGI (SF-268 CNS): 89 µM | GI50 (TK-10 renal): 22.8 µM | TGI (TK-10 renal): 54.1 µM | GI50 (M14 melanoma): 15.7 µM | TGI (M14 melanoma): 31.5 µM | GI50 (HT29 colon): 15.6 µM | TGI (HT29 colon): 30.5 µM | GI50 (RPMI-8226 leukemia): 14.9 µM | TGI (RPMI-8226 leukemia): 64.6 µM | GI50 (SNB-19 CNS): 23.8 µM | TGI (SNB-19 CNS): > 100 µM | GI50 (LOX IMVI melanoma): 15.6 µM | TGI (LOX IMVI melanoma): 30.7 µM | GI50 (BT-549 breast): 13.1 µM | TGI (BT-549 breast): 26.8 µM | GI50 (SK-MEL-5 melanoma): 14.7 µM | TGI (SK-MEL-5 melanoma): 27.8 µM | GI50 (RXF 393 renal): 10.9 µM | TGI (RXF 393 renal): 23.3 µM | GI50 (786-0 renal): 15.5 µM | TGI (786-0 renal): 30.4 µM | GI50 (OVCAR-5 ovarian): 14.6 µM | TGI (OVCAR-5 ovarian): 28.4 µM | GI50 (NCI-H226 lung): 13.5 µM | TGI (NCI-H226 lung): 34.3 µM | GI50 (U251 CNS): 14.9 µM | TGI (U251 CNS): 30 µM | GI50 (MALME-3M melanoma): 16 µM | TGI (MALME-3M melanoma): 29.9 µM | GI50 (SW-620 colon): 25.8 µM | TGI (SW-620 colon): > 100 µM | GI50 (HOP-62 NSCLC): 18.8 µM | TGI (HOP-62 NSCLC): 43.5 µM | GI50 (HS 578T breast): 20.5 µM | TGI (HS 578T breast): 76.9 µM | GI50 (HOP-92 NSCLC): 13.2 µM | TGI (HOP-92 NSCLC): 29 µM | GI50 (NCI-H460 lung): 15.4 µM | TGI (NCI-H460 lung): 33.8 µM | GI50 (CCRF-CEM leukemia): 20 µM | TGI (CCRF-CEM leukemia): 90.6 µM | GI50 (NCI-H23 lung): 17.9 µM | TGI (NCI-H23 lung): 39.3 µM | GI50 (MDA-MB-435): 14.4 µM | TGI (MDA-MB-435): 28.8 µM | GI50 (UACC-257 melanoma): 18.4 µM | TGI (UACC-257 melanoma): 47.9 µM | GI50 (K-562 leukemia): 17.8 µM | TGI (K-562 leukemia): 62.8 µM | GI50 (CAKI-1 renal): 11.1 µM | TGI (CAKI-1 renal): 39.6 µM | GI50 (A498 renal): 20.8 µM | TGI (A498 renal): 45.6 µM | GI50 (UO-31 renal): 12.8 µM | TGI (UO-31 renal): 29.2 µM | GI50 (EKVX NSCLC): 17.2 µM | TGI (EKVX NSCLC): 47.2 µM | GI50 (KM12 colon): 17.5 µM | TGI (KM12 colon): 35.7 µM | GI50 (MDA-MB-468 breast): 13.5 µM | TGI (MDA-MB-468 breast): 31.3 µM | GI50 (A549 NSCLC): 29.5 µM | TGI (A549 NSCLC): > 100 µM | GI50 (MOLT-4 leukemia): 7.51 µM | TGI (MOLT-4 leukemia): 30.6 µM | GI50 (SF-295 CNS): 13.9 µM | TGI (SF-295 CNS): 28.6 µM | GI50 (OVCAR-8 ovarian): 29 µM | TGI (OVCAR-8 ovarian): > 100 µM | GI50 (HCC-2998 colon): 16.7 µM | TGI (HCC-2998 colon): 31.1 µM | GI50 (SR leukemia): 10.3 µM | TGI (SR leukemia): 37.3 µM | GI50 (COLO 205 colon): 16.7 µM | TGI (COLO 205 colon): 33.6 µM | GI50 (SK-MEL-28 melanoma): 15.6 µM | TGI (SK-MEL-28 melanoma): 31.6 µM | GI50 (SK-OV-3 ovarian): 20.3 µM | TGI (SK-OV-3 ovarian): 51 µM | GI50 (HCT-15 colon): 13.2 µM | TGI (HCT-15 colon): 27.4 µM | GI50 (UACC-62 melanoma): 9.17 µM | TGI (UACC-62 melanoma): 21.9 µM | GI50 (DU-145 prostate): 20.1 µM | TGI (DU-145 prostate): 45.6 µM | GI50 (OVCAR-4 ovarian): 16.8 µM | TGI (OVCAR-4 ovarian): 46.5 µM | GI50 (HCT-116 colon): 13.1 µM | TGI (HCT-116 colon): 26 µM | GI50 (PC-3 prostate): 12.8 µM | TGI (PC-3 prostate): 38.5 µM | GI50 (ACHN renal): 14.8 µM | TGI (ACHN renal): 28.1 µM | GI50 (SNB-75 CNS): 13.5 µM | TGI (SNB-75 CNS): 61 µM | GI50 (T-47D breast): 12.9 µM | TGI (T-47D breast): 32.1 µM | GI50 (IGROV1 ovarian): 15.8 µM | TGI (IGROV1 ovarian): 34.1 µM | GI50 (MDA-MB-231 breast): 14.2 µM | TGI (MDA-MB-231 breast): 28.7 µM | GI50 (SN12C renal): 14.8 µM | TGI (SN12C renal): 29.6 µM | GI50 (NCI-H522 lung): 17.6 µM | TGI (NCI-H522 lung): 40.1 µM | GI50 (MCF7 breast): 13 µM | TGI (MCF7 breast): 29.5 µM | GI50 (HL-60(TB) leukemia): 14.2 µM | TGI (HL-60(TB) leukemia): 38.8 µM | GI50 (SF-539 CNS): 14.8 µM | TGI (SF-539 CNS): 28.3 µM
